Measured values as given in US9422293B2 (priority 2006, dated 2016).
Structures can show the parent of a compound that is named as a salt.

Each compound was assayed against rat TRPV1 (Rattus norvegicus (Rat), UniProt O35433). Details: read-out: Rat IC50.
Sequence of rat TRPV1 (O35433 whole entry): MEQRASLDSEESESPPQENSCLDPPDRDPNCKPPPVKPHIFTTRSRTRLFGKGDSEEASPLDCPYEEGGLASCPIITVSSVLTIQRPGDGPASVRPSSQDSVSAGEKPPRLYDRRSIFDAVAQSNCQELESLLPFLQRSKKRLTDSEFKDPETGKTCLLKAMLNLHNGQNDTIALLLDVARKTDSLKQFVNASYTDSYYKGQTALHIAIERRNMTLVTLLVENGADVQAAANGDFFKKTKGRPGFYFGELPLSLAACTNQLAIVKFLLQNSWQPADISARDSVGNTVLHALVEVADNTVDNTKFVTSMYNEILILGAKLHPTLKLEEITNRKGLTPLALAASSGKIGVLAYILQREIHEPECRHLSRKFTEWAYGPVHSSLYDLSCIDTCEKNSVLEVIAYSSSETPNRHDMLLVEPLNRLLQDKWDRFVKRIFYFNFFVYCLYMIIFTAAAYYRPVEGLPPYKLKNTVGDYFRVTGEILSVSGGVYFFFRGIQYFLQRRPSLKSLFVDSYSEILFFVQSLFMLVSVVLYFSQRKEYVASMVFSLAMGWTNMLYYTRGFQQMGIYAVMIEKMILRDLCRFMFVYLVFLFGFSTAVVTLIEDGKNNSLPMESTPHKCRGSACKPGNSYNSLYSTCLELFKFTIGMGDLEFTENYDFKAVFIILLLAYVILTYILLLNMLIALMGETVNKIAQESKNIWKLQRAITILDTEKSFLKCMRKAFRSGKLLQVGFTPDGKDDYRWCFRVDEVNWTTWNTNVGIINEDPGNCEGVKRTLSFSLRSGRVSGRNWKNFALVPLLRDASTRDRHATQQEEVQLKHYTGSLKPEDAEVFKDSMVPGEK
CC(=O)c1ccc(Nc2nc(N3CCCCC3)nc3c2CCN(c2ncccc2C(F)(F)F)CC3)cc1 [Example 156, 1-[4-({2-Piperidin-1-yl-7-[3-(trifluoromethyl)pyridin-2-yl]-6,7,8,9-tetrahydro-5H-pyrimido[4,5-d]azepin-4-yl}amino)phenyl]ethanone] was tested, and the IC50 was 590 nM.
In the case of FC(F)(F)c1ccc(Nc2nc(Sc3ccccc3)nc3c2CCN(c2ncccc2C(F)(F)F)CC3)cc1 [Example 349, 2-(Phenylsulfanyl)-N-[4-(trifluoromethyl)phenyl]-7-[3-(trifluoromethyl)pyridin-2-yl]-6,7,8,9-tetrahydro-5H-pyrimido[4,5-d]azepin-4-amine], the IC50 is reported as 2350 nM.
Compound CC(C)c1nc2c(c(Nc3cnc4ccccc4c3)n1)CCN(c1ncccc1C(F)(F)F)CC2 [Example 21, [2-Isopropyl-7-(3-trifluoromethyl-pyridin-2-yl)-6,7,8,9-tetrahydro-5H-pyrimido[4,5-d]azepin-4-yl]-quinolin-3-yl-amine] has an IC50 of 1100 nM.
Cc1nc2c(c(Nc3ccc(C(F)(F)F)cc3)n1)CCN(c1ncccc1C(F)(F)F)CC2 [Example 16, [2-Methyl-7-(3-trifluoromethyl-pyridin-2-yl)-6,7,8,9-tetrahydro-5H-pyrimido-[4,5-d]azepin-4-yl]-(4-trifluoromethyl-phenyl)-amine] showed an IC50 of 100 nM.
CC(=O)c1ccc(Nc2nc(C(C)C)nc3c2CCN(c2ncccc2C(F)(F)F)CC3)cc1 [Example 96, 1-{4-[2-Isopropyl-7-(3-trifluoromethyl-pyridin-2-yl)-6,7,8,9-tetrahydro-5H-pyrimido[4,5-d]azepin-4-ylamino]-phenyl}-ethanone] gave an IC50 of 340 nM.
Cc1nc2c(c(Nc3ccc(C(C)(C)C)cc3)n1)CCN(c1ncccc1C(F)(F)F)CC2 [Example 15, (4-tert-Butyl-phenyl)-[2-methyl-7-(3-trifluoromethyl-pyridin-2-yl)-6,7,8,9-tetrahydro-5H-pyrimido[4,5-d]azepin-4-yl]-amine] showed an IC50 of 46 nM.
CC(C)(C)c1ccc(Nc2nc(N3CCCCC3)nc3c2CCN(c2ncccc2C(F)(F)F)CC3)cc1N [Example 200, 4-(1,1-Dimethylethyl)-N1-{2-piperidin-1-yl-7-[3-(trifluoromethyl)pyridin-2-yl]-6,7,8,9-tetrahydro-5H-pyrimido[4,5-d]azepin-4-yl}benzene-1,3-diamine] showed an IC50 of 110 nM.
FC(F)(F)c1ccc(Nc2ncnc3c2CCN(c2cnc4ccccc4n2)CC3)cc1 [Example 29, (7-Quinoxalin-2-yl-6,7,8,9-tetrahydro-5H-pyrimido[4,5-d]azepin-4-yl)-(4-trifluoromethyl-phenyl)-amine] showed an IC50 of 340 nM.
Compound CC(C)c1nc2c(c(Nc3ccc4nsnc4c3)n1)CCN(c1ncccc1C(F)(F)F)CC2 [Example 148, Benzo[1,2,5]thiadiazol-5-yl-[2-isopropyl-7-(3-trifluoromethyl-pyridin-yl)-6,7,8,9-tetrahydro-5H-pyrimido[4,5-d]azepin-4-yl]-amine] has an IC50 of 2170 nM.
Compound CC(Oc1nc2c(c(Nc3ccc4c(c3)N(C)CCC4)n1)CCN(c1ncccc1C(F)(F)F)CC2)C1CCCCC1 (centres unmarked) [Example 316, 2-[(1-Cyclohexylethyl)oxy]-N-(1-methyl-1,2,3,4-tetrahydroquinolin-7-yl)-7-[3-(trifluoromethyl)pyridin-2-yl]-6,7,8,9-tetrahydro-5H-pyrimido[4,5-d]azepin-4-amine] has an IC50 of 1180 nM.
In the case of CC(C)(C)c1ccc(Nc2nc(-c3ccco3)nc3c2CCN(c2ncccc2C(F)(F)F)CC3)cc1 [Example 145, N-[4-(1,1-Dimethylethyl)phenyl]-2-furan-2-yl-7-[3-(trifluoromethyl)pyridin-2-yl]-6,7,8,9-tetrahydro-5H-pyrimido[4,5-d]azepin-4-amine], the IC50 is reported as 240 nM.
For Fc1cc(Nc2nc(N3CCCCC3)nc3c2CCN(c2ncccc2C(F)(F)F)CC3)ccc1C(F)(F)F [Example 157, N-[3-Fluoro-4-(trifluoromethyl)phenyl]-2-piperidin-1-yl-7-[3-(trifluoromethyl)pyridin-2-yl]-6,7,8,9-tetrahydro-5H-pyrimido[4,5-d]azepin-4-amine], the IC50 was 70 nM.
In the case of CC(C)c1nc2c(c(Nc3ccc(C(F)(F)F)cc3F)n1)CCN(c1ncccc1C(F)(F)F)CC2 [Example 155, N-[2-Fluoro-4-(trifluoromethyl)phenyl]-2-(1-methylethyl)-7-[3-(trifluoromethyl)pyridin-2-yl]-6,7,8,9-tetrahydro-5H-pyrimido[4,5-d]azepin-4-amine], the IC50 is reported as 3280 nM.
Compound CC(C)(C)c1ccc(Nc2nc(N3CCOCC3)nc3c2CCN(c2ncccc2C(F)(F)F)CC3)cc1 [Example 47, (4-tert-Butyl-phenyl)-[2-morpholin-4-yl-7-(3-trifluoromethyl-pyridin-2-yl)-6,7,8,9-tetrahydro-5H-pyrimido[4,5-d]azepin-4-yl]-amine] has an IC50 of 23 nM.
In the case of CC(C)c1nc2c(c(NCCc3ccccc3Br)n1)CCN(c1ncccc1C(F)(F)F)CC2 [Example 119, N-[2-(2-Bromophenyl)ethyl]-2-(1-methylethyl)-7-[3-(trifluoromethyl)pyridin-2-yl]-6,7,8,9-tetrahydro-5H-pyrimido[4,5-d]azepin-4-amine], the IC50 is reported as 1220 nM.
With CC(C)N(C)c1nc2c(c(Nc3ccc(C(F)(F)F)nc3)n1)CCN(c1ncccc1C(F)(F)F)CC2 [Example 266, N^2-Methyl-N^2-(1-methylethyl)-7-[3-(trifluoromethyl)pyridin-2-yl]-N^4-[6-(trifluoromethyl)pyridin-3-yl]-6,7,8,9-tetrahydro-5H-pyrimido[4,5-d]azepine-2,4-diamine] the IC50 was 450 nM.
CC(O)(c1ccc(Nc2nc(N3CCCCC3)nc3c2CCN(c2ncccc2C(F)(F)F)CC3)cc1)C(F)(F)F (centres unmarked) [Example 180, 1,1,1-Trifluoro-2-[4-({2-piperidin-1-yl-7-[3-(trifluoromethyl)pyridin-2-yl]-6,7,8,9-tetrahydro-5H-pyrimido[4,5-d]azepin-4-yl}amino)phenyl]propan-2-ol] was tested, and the IC50 was > 6670 nM.
In the case of COCc1nc2c(c(Nc3ccc(C(F)(F)F)nc3)n1)CCN(c1ncccc1C(F)(F)F)CC2 [Example 346, 2-[(Methyloxy)methyl]-7-[3-(trifluoromethyl)pyridin-2-yl]-N-[6-(trifluoromethyl)pyridin-3-yl]-6,7,8,9-tetrahydro-5H-pyrimido[4,5-d]azepin-4-amine trifluoroacetic acid salt], the IC50 is reported as > 6670 nM.
In the case of Cc1cccc(Nc2nc3c(c(Nc4ccc(C(F)(F)F)cc4)n2)CCN(c2ncccc2C(F)(F)F)CC3)c1 [Example 279, N^2-(3-Methylphenyl)-N^4-[4-(trifluoromethyl)phenyl]-7-[3-(trifluoromethyl)pyridin-2-yl]-6,7,8,9-tetrahydro-5H-pyrimido[4,5-d]azepine-2,4-diamine trifluoroacetic acid salt], the IC50 is reported as > 6670 nM.
COc1nc2c(c(Nc3ccc(C(F)(F)F)cc3)n1)CCN(c1ncccc1C(F)(F)F)CC2 [Example 62, [2-Methoxy-7-(3-trifluoromethyl-pyridin-2-yl)-6,7,8,9-tetrahydro-5H-pyrimido[4,5-d]azepin-4-yl]-(4-trifluoromethyl-phenyl)-amine] was tested, and the IC50 was 53 nM.
For CN(C)c1nc2c(c(Nc3ccc4c(c3)OCCO4)n1)CCN(c1ncccc1C(F)(F)F)CC2 [Example 68B, N^4-(2,3-Dihydro-benzo[1,4]dioxin-6-yl)-N^2,N^2-dimethyl-7-(3-trifluoromethyl-pyridin-2-yl)-6,7,8,9-tetrahydro-5H-pyrimido[4,5-d]azepine-2,4-diamine trifluoroacetic acid salt], the IC50 was 3200 nM.
With Cc1cc(C(F)(F)F)ccc1Nc1nc(S(C)(=O)=O)nc2c1CCN(c1ncccc1C(F)(F)F)CC2 [Example 209, 2-(Methylsulfonyl)-N-[2-methyl-4-(trifluoromethyl)phenyl]-7-[3-(trifluoromethyl)pyridin-2-yl]-6,7,8,9-tetrahydro-5H-pyrimido[4,5-d]azepin-4-amine] the IC50 was 3450 nM.
CC(C)(C#N)c1ccc(Nc2nc(N3CCCCC3)nc3c2CCN(c2ncccc2C(F)(F)F)CC3)cc1 [Example 384, 2-Methyl-2-{4-[2-piperidin-1-yl-7-(3-trifluoromethyl-pyridin-2-yl)-6,7,8,9-tetrahydro-5H-pyrimido[4,5-d]azepin-4-ylamino]-phenyl}-propionitrile] showed an IC50 of 40 nM.
CCS(=O)(=O)c1cccnc1N1CCc2ncnc(Nc3ccc(C(F)(F)F)cc3)c2CC1 [Example 301, 7-[3-(Ethylsulfonyl)pyridin-2-yl]-N-[4-(trifluoromethyl)phenyl]-6,7,8,9-tetrahydro-5H-pyrimido[4,5-d]azepin-4-amine] gave an IC50 of 8970 nM.
Work on CC(C)c1nc2c(c(Nc3ccc(N4CCCC4)nc3)n1)CCN(c1ncccc1C(F)(F)F)CC2 [Example 165, [2-Isopropyl-7-(3-trifluoromethyl-pyridin-2-yl)-6,7,8,9-tetrahydro-5H-pyrimido[4,5-d]azepin-4-yl]-(6-pyrrolidin-1-yl-pyridin-3-yl)-amine] yielded an IC50 of 2250 nM.
In the case of COCCN(C)c1nc2c(c(Nc3ccc(C(F)(F)F)nc3)n1)CCN(c1ncccc1C(F)(F)F)CC2 [Example 228, N^2-Methyl-N^2-[2-(methyloxy)ethyl]-7-[3-(trifluoromethyl)pyridin-2-yl]-N^4-[6-(trifluoromethyl)pyridin-3-yl]-6,7,8,9-tetrahydro-5H-pyrimido[4,5-d]azepine-2,4-diamine trifluoroacetic acid salt], the IC50 is reported as 40 nM.
For CC(C)c1nc2c(c(Nc3ccc(C(=O)N(C)C)cc3)n1)CCN(c1ncccc1C(F)(F)F)CC2 [Example 127, N,N-Dimethyl-4-({2-(1-methylethyl)-7-[3-(trifluoromethyl)pyridin-2-yl]-6,7,8,9-tetrahydro-5H-pyrimido[4,5-d]azepin-4-yl}amino)benzamide], the IC50 was 19200 nM.
For NS(=O)(=O)c1cccnc1N1CCc2ncnc(Nc3ccc(C(F)(F)F)cc3)c2CC1 [Example 302, 2-(4-{[4-(Trifluoromethyl)phenyl]amino}-5,6,7,8,9-tetrahydro-7H-pyrimido[4,5-d]azepin-7-yl)pyridine-3-sulfonamide], the IC50 was 9460 nM.
OC1CCN(c2nc3c(c(Nc4ccc(C(F)(F)F)cc4)n2)CCN(c2ncccc2C(F)(F)F)CC3)CC1 [Example 59B, 1-[4-(4-Trifluoromethyl-phenylamino)-7-(3-trifluoromethyl-pyridin-2-yl)-6,7,8,9-tetrahydro-5H-pyrimido[4,5-d]azepin-2-yl]-piperidin-4-ol trifluoroacetic acid salt] gave an IC50 of 380 nM.
